Measured values reported in BindingDB's records for doi:10.7270/Q2959G0B (Nmmlsc, 2009).

biological target: Ras-related C3 botulinum toxin substrate 1 (Mus musculus, UniProt P63001); assay: Rac1 wildtype GTP binding inhibitors, SAR follow-up, biochemical, pyrazoline analogs, multiplex, flow cytometry, Ki (AID 2055); details: inactive by the depositor's call

SMILES | EC50 [µM]
CN(C)c1ccc(C2CC(c3ccc(Br)cc3)=NN2c2ccccc2)cc1 (centres undefined) [UNM-0000305846] | 30
COc1ccc(C2CC(c3ccc(Br)cc3)=NN2c2ccc(S(N)(=O)=O)cc2)cc1 (centres undefined) [UNM-0000306138] | 30
COc1ccc(C2=NN(c3ccccc3)C(c3ccccc3C(F)(F)F)C2)cc1 (centres undefined) | 30
O=[N+]([O-])c1cccc(C2C[C-](c3ccc(F)cc3)N=[N+]2c2ccccc2)c1 (centres undefined) [5-(4-fluorophenyl)-3-(3-nitrophenyl)-2-phenyl-3,4-dihydropyrazole] | 30
COc1ccc(C2CC(C)=NN2c2ccc(S(N)(=O)=O)cc2)cc1 (centres undefined) [4-[3-(4-methoxyphenyl)-5-methyl-3,4-dihydropyrazol-2-yl]benzenesulfonamide] | 30
CC(=O)Oc1ccc(C2=NN(c3ccccc3)C(c3ccccc3)C2)cc1 (centres undefined) | 5.65
Cc1ccc(-c2cc(C(F)(F)F)nn2-c2ccc(S(N)(=O)=O)cc2)cc1 [Celecoxib] | 30
COc1ccc(C2CC(c3cccc(C)c3)=NN2c2ccc(S(N)(=O)=O)cc2)cc1 (centres undefined) [UNM-0000306153] | 30
NS(=O)(=O)c1ccc(N2N=C(c3ccccc3)CC2c2ccc(Cl)cc2)cc1 (centres undefined) [4-[3-(4-chlorophenyl)-5-phenyl-3,4-dihydropyrazol-2-yl]benzenesulfonamide] | 30
O=[N+]([O-])c1ccc([N+]2=N[C-](c3ccccc3)CC2c2ccccc2)cc1 (centres undefined) | 30
CCc1ccc(C2=NN(c3ccc(S(N)(=O)=O)cc3)C(c3ccc(F)cc3)C2)cc1 (centres undefined) | 30
COc1ccc(C2CC(c3ccccc3)=NN2c2cccc(S(N)(=O)=O)c2)cc1 (centres undefined) [3-[3-(4-methoxyphenyl)-5-phenyl-3,4-dihydropyrazol-2-yl]benzenesulfonamide] | 30
Fc1ccccc1C1CC(c2ccc(Br)cc2)=NN1c1ccc(Br)cc1 (centres undefined) [2,5-bis(4-bromophenyl)-3-(2-fluorophenyl)-3,4-dihydropyrazole] | 30
COc1ccc(C2CC(c3cccc(N(C)C)c3)=NN2c2ccc(S(N)(=O)=O)cc2)cc1 (centres undefined) | 30
CN(C)c1ccc(C2CC(c3ccc(Cl)cc3)=NN2c2ccccc2)cc1 (centres undefined) [UNM-0000305847] | 30
COc1ccc(C2CC(c3ccccc3OC)=NN2c2ccc(S(N)(=O)=O)cc2)cc1 (centres undefined) | 30
COc1ccc(C2CC(c3ccc(F)cc3)=NN2c2cccc(F)c2)cc1OC (centres undefined) | 0.027
COc1ccc(C2CC(c3ccccc3)=NN2c2ccc(C(N)=O)cc2)cc1 (centres undefined) [UNM-0000305870] | 30
COc1ccc(C2CC(c3ccccc3F)=NN2c2ccc(S(N)(=O)=O)cc2)cc1 (centres undefined) [UNM-0000306110] | 30
COc1ccc(C2CC(c3cccc(Cl)c3)=NN2c2ccc(S(N)(=O)=O)cc2)cc1 (centres undefined) [UNM-0000306134] | 30
COc1ccc(C2CC(c3ccc(C)cc3)=NN2c2ccc(S(N)(=O)=O)cc2)cc1 (centres undefined) | 30
NS(=O)(=O)c1ccc(N2N=C(c3ccccc3)CC2c2cccc(Cl)c2)cc1 (centres undefined) [UNM-0000306161] | 30
COc1ccc(C2CC(c3ccc(Br)cc3)=NN2c2ccccc2Cl)cc1 (centres undefined) [UNM-0000305832] | 30
COc1ccc(C2CC(c3ccc(N(C)C)cc3)=NN2c2ccc(S(N)(=O)=O)cc2)cc1 (centres undefined) [KUC103422N] | 30
COc1ccc(C2=NN(c3cccc(F)c3)C(c3ccc(Cl)cc3)C2)cc1 (centres undefined) [3-(4-chlorophenyl)-2-(3-fluorophenyl)-5-(4-methoxyphenyl)-3,4-dihydropyrazole] | 30
COc1ccc(C2=NN(c3ccccc3)C(c3ccc(OC)c(OC)c3C(=O)O)C2)cc1 (centres undefined) [UNM-0000305848] | 30
NS(=O)(=O)c1ccc(N2N=C(c3ccccc3)CC2c2ccccc2Cl)cc1 (centres undefined) [KUC103446N] | 30
Fc1ccc(C2=NN(c3cccc(Br)c3)C(c3ccccc3)C2)cc1 (centres undefined) [2-(3-bromophenyl)-5-(4-fluorophenyl)-3-phenyl-3,4-dihydropyrazole] | 30
COc1ccccc1C1CC(c2ccccc2)=NN1c1ccc(S(N)(=O)=O)cc1 (centres undefined) [4-[3-(2-methoxyphenyl)-5-phenyl-3,4-dihydropyrazol-2-yl]benzenesulfonamide] | 30
